Measurements published in US20050070591A1, “Indole derivative” (priority 2001, published 2005).
Several values for one entry are separate records, joined by “and”; a condition that tells them apart may be missing. Equal values may be shown once.

Assays:
[1] = test system: human epidermoid carcinoma cells A431; test: Abrogating action for the cell cycle accumulation in G2 and S phases (flow cytometry DNA histogram); format: cell-based; settings: cisplatin 20 μmol/L
Procedure: Each 5 mL of human epidermoid carcinoma cells A431 (hereinafter, referred to as A431 cells) prepared in 6×10^4 cells/mL in a DMEM medium (manufactured by Nissui; hereinafter, referred to as the medium A) containing 10% fetal bovine serum were disposed in a 10-cm laboratory dish (manufactured by Falcon; product no. 3303). The plate was incubated in a carbon dioxide gas incubator at 37° C. for 24 hours, then cisplatin (manufactured by Sigma) where its final concentration in the medium A was made 20 μmol/L was added and the mixture was incubated at 37° C. for 1 hour in a carbon dioxide gas incubator.
After removing the medium, the cell was washed with PBS(−) [phosphate-buffered physiological saline solution (containing no calcium ion); manufactured by Dainippon Pharmaceutical, then the medium A was added thereto, the mixture was incubated at 37° C. for 15 hours in a carbon dioxide gas incubator, a compound which was appropriately diluted with the medium A was added thereto and the mixture was incubated again in a carbon dioxide gas incubator at 37° C. for 8 hours. After removal of the supernatant from the culture, the cell was washed with PBS(−), exfoliated with a 0.25% aqueous solution of trypsin (0.25% Trypsin manufactured by Gibco BRL) and a 0.02% aqueous solution of ethylenediaminetetraacetic acid (manufactured by Wako Pure Chemicals), fixed with a 70% aqueous solution of ethanol so as to make the cell concentration 10^6 cells/mL and preserved in a cool chamber of 4° C. The fixed cells were subjected to a centrifugal separation to remove ethanol, washed with PBS(−) and treated with a 0.25 mg/mL ribonuclease A type 1-A (manufactured by Sigma) PBS(−) solution containing 0.1% Nonidet P-40 (manufactured by Nakarai Kagaku Yakuhin) at 37° C. for 30 minutes and a 0.1% solution of propidium iodide (manufactured by Sigma) in NP-40/PBS(−) so as to make the final concentration 50 μg/mL followed by staining in ice for not shorter than 20 minutes.
A DNA histogram was measured using an EPICS ELITE Flow Cytometer (manufactured by Coulter) and distribution of cell cycle was analyzed using a MultiCycle Program (manufactured by Phonenix Flow Systems).

[2] = target: T1, human CDK2-cyclin E (Homo sapiens, UniProt P24941); test: CDK2 inhibitory activity (incorporation of 32P from [γ-32P]-ATP into GST-RB); format: biochemical; settings: 50 μmol/L ATP, 30° C., 5 minutes; read-out: Enzyme Inhibitory Activity, IC50
T1 construct: made in house; host or cells: Spodoptera frugiperda (Sf-9) insect cells, baculovirus
Procedure: A crude extract of cells of an insect, Spodoptera frugiperda (Sf-9) infected with human CDK2-cyclin E-expressing baculovirus was subjected to an affinity purification to give an enzyme solution. The enzyme solution (4 μL), 20 μL of reaction solution containing a DMSO solution in which a test compound was dissolved (final concentration: 0.1%) and 5 μL of a substrate solution [50 μmol/L of ATP (final concentration), 2 μCi of [γ-^32P]-ATP and 500 ng of […] (GST-RB)] were incubated at 30° C. for 5 minutes. A sodium dodecylsulfate-polyacrylamide gel electrophoresis (SDS-PAGE) was carried out, then incorporation of radiation activity from [γ-^32P]-ATP into GST-RB was determined using an Image Analyzer BAS 200 (Fuji Photo-Film) and an enzyme inhibition was calculated. CDK2 inhibitory activity (I) at various concentrations of a test compound was calculated by the following formula using radiation activity (C) of the group to which no test compound was added, radiation activity (S) of the group to which a test compound was added and radiation activity (B) of a background (a sample where the reaction time was 0 hour) and a concentration by which CDK2 activity was inhibited to an extent of 50% by each test compound was defined as IC50. I(%)=[1−(S−B)/(C−B)]×100

[3] = test system: U2OS cells; test: Cell growth inhibition against human osteosarcoma cells U2OS; format: cell-based; settings: 72 hours, read-out: Cell Growth Inhibitory Activity, IC50, U2OS
Procedure: (§1) Each of Saos-2 and U2OS cells was made into 1.0×10^4 cells/mL using a Roswell Park Memorial Institute's medium (RPMI) 1640 (manufactured by Nissui) containing 10% of fetal bovine serum and penicillin/streptomycin and a Dulbecco's modified Eagle medium (DME) (manufactured by Nissui) containing 10% fetal bovine serum and penicillin/streptomycin each. Each of the prepared cells was dispensed in an amount of 0.1 mL per well to a 96-well microtiter plate (#167008 manufactured by Nunk). Each plate was incubated in a carbon dioxide gas incubator at 37° C. for 20 hours. A solution of a test compound in DMSO prepared into 10 mmol/L was diluted with each medium for incubation and each 0.05 mL thereof was added to each well, subjected to stepwise dilution by means of a pipetting operation in the plate and incubated at 37° C. for 72 hours in a carbon dioxide gas incubator.
(§2) A supernatant was removed from cell culture, each well was washed with 0.1 mL of a phosphate buffer (PBS buffer) twice and 0.1 mL of the above medium was added to each well. A cell proliferation kit II (manufactured by Boehringer Mannheim) was used for the measurement of cell numbers in each well. A reagent for color reaction was added, incubation was carried out in a carbon dioxide gas incubator at 37° C. for 3 hours and absorbance at 490 nm and 650 nm was measured in a microplate reader (M-SP max 250; manufactured by Wako Pure Chemicals). A value where absorbance at 650 nm was deducted from that at 490 nm (difference absorbance) was calculated for each well and the difference absorbance obtained from non-treated cells and cells which were treated with a test compound of a known concentration was compared whereupon a concentration of the test compound which inhibited the cell growth to an extent of 50% was calculated and expressed as IC50.

[4] = test system: Saos-2 cells; test: Cell growth inhibition against human osteosarcoma cells Saos-2; format: cell-based; settings: Saos-2, 72 hours, read-out: Cell Growth Inhibitory Activity, IC50, Saos-2
Procedure: as §1, §2

Compound	IC50 [2]	IC50 [3]	IC50 [4]	further results
N.N.[Cl][Pt][Cl] [Cisplatin, cisplatin]	–	–	–	Cell Cycle Distribution (%) G1 [1]: 2.2% and 10.4%; Cell Cycle Distribution (%) G2M [1]: 17.2% and 22.4%; Cell Cycle Distribution (%) S [1]: 80.6% and 67.2%; Change of cell cycle distribution as compared with untreated groups (induction of the accumulation in G2 or S phase) [1]: increase in S phase, increase in G2 and M phase and decrease in G1 phase
CCCCC(=O)Oc1cccc(-c2cc3c(cc(C=O)n3C)c3c2C(=O)NC3=O)c1 [Compound 12]	5000 nM	–	–	–
Cn1c2ccccc2c2c3c(c(CBr)cc21)C(=O)NC3=O [Compound 36]	2300 nM	–	–	–
C=CCn1c2ccccc2c2c3c(c(COC4CCCCO4)cc21)C(=O)NC3=O (centres unmarked) [Compound 47]	4000 nM	–	–	–
C=CCn1c2ccccc2c2c3c(c(CN=[N+]=[N-])cc21)C(=O)NC3=O [Compound 48]	430 nM	–	–	–
COC(=O)c1ccc(Cn2c3ccccc3c3c4c(c(COC5CCCCO5)cc32)C(=O)NC4=O)cc1 (centres unmarked) [Compound 79]	2000 nM	–	–	–
O=C1NC(=O)c2c1c(COC1CCCCO1)cc1c2c2ccccc2n1Cc1ccc2ccccc2c1 (centres unmarked) [Compound 80]	2400 nM	–	–	–

Further lines, with some results ahead:

IC50 [2]	IC50 [3]	IC50 [4]	Compound	further results
4900 nM	–	–	C=CCn1c2ccccc2c2c3c(c(N)cc21)C(=O)NC3=O [Compound 45]	–
3300 nM	–	–	C=CCn1c2ccccc2c2c3c(c(CO)cc21)C(=O)NC3=O [Compound 46]	–
660 nM	–	–	C=CCn1c2ccccc2c2c3c(c(C=O)cc21)C(=O)NC3=O [Compound 50]	–
2000 nM	–	–	C=CCn1c2ccccc2c2c3c(c(C=NNCCO)cc21)C(=O)NC3=O [Compound 54]	–
7000 nM	1600 nM	1300 nM	CN(C)CCCn1c2ccccc2c2c3c(c(C=O)cc21)C(=O)NC3=O [Compound 64]	–
2800 nM	500 nM	680 nM	CN(C)CCCn1c2ccccc2c2c3c(c(C=NO)cc21)C(=O)NC3=O [Compound 65]	–
250 nM	2100 nM	1200 nM	CC(Cn1c2ccccc2c2c3c(c(C=O)cc21)C(=O)NC3=O)N(C)C (centres unmarked) [Compound 66]	–
200 nM	1200 nM	930 nM	CC(Cn1c2ccccc2c2c3c(c(C=NO)cc21)C(=O)NC3=O)N(C)C (centres unmarked) [Compound 68]	–
960 nM	680 nM	300 nM	CC(Cn1c2ccccc2c2c3c(c(C=NN)cc21)C(=O)NC3=O)N(C)C (centres unmarked) [Compound 69]	–
